In US10479784B2, “Substituted pyrazin-2-amines as inhibitors of ATR kinase” (Vertex Pharmaceuticals Incorporated, priority 2008, dated 2019):

The compounds below were run against full-length ATR (Homo sapiens (Human), UniProt Q13535) (assay: ATR Inhibition Assay (radioactive-phosphate incorporation)). Settings: read-out: ATR Ki.
Type: biochemical
Method in brief: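 Ki(app) was derived by non-linear regression of background-corrected initial rates of 33P incorporation into an 800 μM target peptide, read by phosphocellulose filter scintillation counting. Reaction conditions: 5 nM full-length ATR, 10 μM [γ-33P]ATP, pH 7.5 Tris buffer with MgCl2 and DTT, 25 °C, 10-min preincubation, 24 h run.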

Chain of full-length ATR (Q13535 whole entry): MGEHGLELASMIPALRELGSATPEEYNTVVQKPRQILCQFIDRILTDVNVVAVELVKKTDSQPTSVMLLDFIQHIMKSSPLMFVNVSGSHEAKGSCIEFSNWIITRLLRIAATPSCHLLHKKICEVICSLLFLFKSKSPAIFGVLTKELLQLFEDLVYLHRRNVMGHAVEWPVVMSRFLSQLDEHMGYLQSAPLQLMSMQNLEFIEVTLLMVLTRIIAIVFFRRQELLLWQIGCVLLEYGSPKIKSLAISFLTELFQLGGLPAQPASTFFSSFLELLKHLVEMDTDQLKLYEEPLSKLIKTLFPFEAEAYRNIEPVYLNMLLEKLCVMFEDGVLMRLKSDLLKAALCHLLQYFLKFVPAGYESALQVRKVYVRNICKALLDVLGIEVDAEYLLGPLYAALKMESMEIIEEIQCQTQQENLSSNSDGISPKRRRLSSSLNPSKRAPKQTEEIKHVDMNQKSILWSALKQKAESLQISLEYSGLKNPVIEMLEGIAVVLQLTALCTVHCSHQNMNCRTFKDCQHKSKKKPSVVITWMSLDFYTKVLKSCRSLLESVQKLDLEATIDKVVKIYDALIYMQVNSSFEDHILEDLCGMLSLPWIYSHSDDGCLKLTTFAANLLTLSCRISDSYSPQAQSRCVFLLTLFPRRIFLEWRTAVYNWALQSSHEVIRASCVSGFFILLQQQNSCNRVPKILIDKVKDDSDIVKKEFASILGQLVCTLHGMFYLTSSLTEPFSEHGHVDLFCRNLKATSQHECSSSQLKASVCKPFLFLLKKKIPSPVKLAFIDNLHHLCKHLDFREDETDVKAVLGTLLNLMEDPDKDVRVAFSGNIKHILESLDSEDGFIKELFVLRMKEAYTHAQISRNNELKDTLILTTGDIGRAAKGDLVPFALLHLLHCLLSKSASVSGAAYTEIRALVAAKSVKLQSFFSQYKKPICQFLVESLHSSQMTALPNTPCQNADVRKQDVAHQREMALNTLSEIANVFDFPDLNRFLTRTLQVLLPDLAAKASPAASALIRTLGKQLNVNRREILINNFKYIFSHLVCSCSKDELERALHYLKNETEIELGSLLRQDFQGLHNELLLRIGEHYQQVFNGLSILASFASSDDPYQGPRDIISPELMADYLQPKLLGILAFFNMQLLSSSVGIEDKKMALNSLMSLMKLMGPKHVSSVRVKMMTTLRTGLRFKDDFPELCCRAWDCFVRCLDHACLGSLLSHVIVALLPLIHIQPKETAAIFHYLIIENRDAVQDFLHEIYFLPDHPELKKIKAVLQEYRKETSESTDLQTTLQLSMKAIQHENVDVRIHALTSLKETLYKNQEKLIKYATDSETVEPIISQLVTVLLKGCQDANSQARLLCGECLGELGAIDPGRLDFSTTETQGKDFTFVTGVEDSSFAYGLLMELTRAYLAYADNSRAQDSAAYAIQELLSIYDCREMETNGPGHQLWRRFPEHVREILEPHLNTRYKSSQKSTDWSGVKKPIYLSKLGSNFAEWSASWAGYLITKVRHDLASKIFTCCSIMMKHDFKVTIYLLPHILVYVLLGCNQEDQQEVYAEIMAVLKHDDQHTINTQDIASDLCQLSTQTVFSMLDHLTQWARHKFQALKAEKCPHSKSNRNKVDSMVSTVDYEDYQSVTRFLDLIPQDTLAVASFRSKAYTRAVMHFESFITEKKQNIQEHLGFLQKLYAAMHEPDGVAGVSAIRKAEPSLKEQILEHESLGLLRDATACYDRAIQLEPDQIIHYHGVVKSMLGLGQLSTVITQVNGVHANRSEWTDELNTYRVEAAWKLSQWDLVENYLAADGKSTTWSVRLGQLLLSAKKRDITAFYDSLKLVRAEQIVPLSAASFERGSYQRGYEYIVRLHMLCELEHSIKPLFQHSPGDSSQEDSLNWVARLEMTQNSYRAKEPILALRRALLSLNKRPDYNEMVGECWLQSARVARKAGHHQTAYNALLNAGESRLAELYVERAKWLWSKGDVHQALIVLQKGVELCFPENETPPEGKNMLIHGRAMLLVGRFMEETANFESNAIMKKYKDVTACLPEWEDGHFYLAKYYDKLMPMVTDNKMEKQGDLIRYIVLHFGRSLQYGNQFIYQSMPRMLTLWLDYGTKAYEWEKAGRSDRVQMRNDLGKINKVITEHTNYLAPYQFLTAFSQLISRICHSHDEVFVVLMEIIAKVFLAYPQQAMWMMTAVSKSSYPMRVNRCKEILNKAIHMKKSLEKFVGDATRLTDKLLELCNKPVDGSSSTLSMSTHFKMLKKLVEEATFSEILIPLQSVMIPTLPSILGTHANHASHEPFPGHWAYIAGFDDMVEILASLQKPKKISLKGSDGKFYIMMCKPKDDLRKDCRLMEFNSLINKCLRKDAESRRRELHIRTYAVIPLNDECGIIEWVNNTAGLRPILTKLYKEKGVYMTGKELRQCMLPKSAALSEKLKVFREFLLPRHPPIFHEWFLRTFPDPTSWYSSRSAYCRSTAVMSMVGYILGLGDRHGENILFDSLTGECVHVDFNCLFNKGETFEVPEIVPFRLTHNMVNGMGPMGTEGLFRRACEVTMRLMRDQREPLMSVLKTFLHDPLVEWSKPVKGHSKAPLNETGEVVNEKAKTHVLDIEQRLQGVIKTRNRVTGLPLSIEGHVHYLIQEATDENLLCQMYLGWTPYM

Ki [nM] | SMILES
10 to 100 | NC(=O)Cc1ccccc1-c1cnc(N)c(-c2nnc(-c3ccccc3)o2)n1 [IA-266, 2-[2-[5-amino-6-(5-phenyl-1,3,4-oxadiazol-2-yl)pyrazin-2-yl]phenyl]acetamide]
10 to 100 | CC(=O)Nc1ccccc1-c1cnc(N)c(-c2nnc(-c3ccccc3)o2)n1 [IA-267, N-(2-(5-amino-6-(5-phenyl-1,3,4-oxadiazol-2-yl)pyrazin-2-yl)phenyl)ethanamide]
10 to 100 | CC#Cc1cc(C(=O)N(C)C)ccc1-c1cnc(N)c(-c2nnc(-c3ccccc3)o2)n1 [IA-268, 4-[5-amino-6-(5-phenyl-1,3,4-oxadiazol-2-yl)pyrazin-2-yl]-N,N-dimethyl-3-prop-1-ynyl-benzamide]
≤ 10 | Cc1ccsc1-c1nnc(-c2nc(-c3ccc(S(=O)(=O)CCN(C)C)cc3)cnc2N)o1 [IA-269, 5-[4-(2-dimethylaminoethylsulfonyl)phenyl]-3-[5-(3-methyl-2-thienyl)-1,3,4-oxadiazol-2-yl]pyrazin-2-amine]
≤ 10 | CC(C)S(=O)(=O)c1ccc(-c2cnc(N)c(-c3nnc(N)o3)n2)cc1 [IA-270, 5-[3-amino-6-(4-isopropylsulfonylphenyl)pyrazin-2-yl]-1,3,4-oxadiazol-2-amine]
100 to 5000 | Nc1ncc(-c2ccnc(N3CCNCC3)c2)nc1-c1nnc(-c2ccccc2)o1 [IA-271, 3-(5-phenyl-1,3,4-oxadiazol-2-yl)-5-(2-piperazin-1-yl-4-pyridyl)pyrazin-2-amine]
100 to 5000 | CC(N)C(=O)Nc1nnc(-c2nc(-c3ccc(S(=O)(=O)C(C)C)cc3)cnc2N)o1 (stereo not drawn) [IA-272, 2-amino-N-[5-[3-amino-6-(4-isopropylsulfonylphenyl)pyrazin-2-yl]-1,3,4-oxadiazol-2-yl]propanamide]
10 to 100 | CC(C)S(=O)(=O)c1ccc(-c2cnc(N)c(-c3nnc(-c4ccc(C#N)cc4)o3)n2)cc1 [IA-273, 4-[5-[3-amino-6-(4-isopropylsulfonylphenyl)pyrazin-2-yl]-1,3,4-oxadiazol-2-yl]benzonitrile]
10 to 100 | CC(O)c1cccc(-c2nnc(-c3nc(-c4ccc(C(=O)N(C)C)cc4)cnc3N)o2)c1 (stereo not drawn) [IA-275, 4-[5-amino-6-[5-[3-(1-hydroxyethyl)phenyl]-1,3,4-oxadiazol-2-yl]pyrazin-2-yl]-N,N-dimethyl-benzamide]
≤ 10 | Cc1ccsc1-c1nnc(-c2nc(-c3ccc(S(=O)(=O)C(C)C)cc3)cnc2N)o1 [IA-276, 5-(4-isopropylsulfonylphenyl)-3-[5-(3-methyl-2-thienyl)-1,3,4-oxadiazol-2-yl]pyrazin-2-amine]
100 to 5000 | CC(=O)Nc1nnc(-c2nc(-c3ccc(C(=O)N(C)C)cc3)cnc2N)o1 [IA-278, 4-[6-(5-acetamido-1,3,4-oxadiazol-2-yl)-5-amino-pyrazin-2-yl]-N,N-dimethyl-benzamide]
100 to 5000 | CN(C)CCCOc1ccc(-c2cnc(N)c(-c3nnc(-c4ccccc4)o3)n2)cn1 [IA-279, 5-[6-[3-(dimethylamino)propoxy]-3-pyridyl]-3-(5-phenyl-1,3,4-oxadiazol-2-yl)pyrazin-2-amine]
≤ 10 | CC(C)(C)S(=O)(=O)c1ccc(-c2cnc(N)c(-c3nnc(-c4ccccc4)o3)n2)cc1 [IA-280, 5-(4-tert-butylsulfonylphenyl)-3-(5-phenyl-1,3,4-oxadiazol-2-yl)pyrazin-2-amine]
≤ 10 | CNCc1ccc(-c2nnc(-c3nc(-c4ccc(C(=O)N(C)C)cc4)cnc3N)o2)cc1 [IA-281, 4-[5-amino-6-[5-[4-(methylaminomethyl)phenyl]-1,3,4-oxadiazol-2-yl]pyrazin-2-yl]-N,N-dimethyl-benzamide]
≤ 10 | CC(N)c1cccc(-c2nnc(-c3nc(-c4ccc(S(=O)(=O)C(C)C)cc4)cnc3N)o2)c1 (stereo not drawn) [IA-282, 3-[5-[3-(1-aminoethyl)phenyl]-1,3,4-oxadiazol-2-yl]-5-(4-isopropylsulfonylphenyl)pyrazin-2-amine]
10 to 100 | Nc1ncc(-c2ccc(N3CCOCC3)nc2)nc1-c1nnc(-c2ccccc2)o1 [IA-283, 5-(6-morpholino-3-pyridyl)-3-(5-phenyl-1,3,4-oxadiazol-2-yl)pyrazin-2-amine]
≤ 10 | CN(C)C(=O)c1ccc(-c2cnc(N)c(-c3nnc(-c4ccccc4OCCCO)o3)n2)cc1 [IA-284, 4-[5-amino-6-[5-[2-(3-hydroxypropoxy)phenyl]-1,3,4-oxadiazol-2-yl]pyrazin-2-yl]-N,N-dimethyl-benzamide]
≤ 10 | CC(C)S(=O)(=O)c1ccc(-c2cnc(N)c(-c3nnc(-c4ccc(C5CNC5)cc4)o3)n2)cc1 [IA-285, 3-[5-[4-(azetidin-3-yl)phenyl]-1,3,4-oxadiazol-2-yl]-5-(4-isopropylsulfonylphenyl)pyrazin-2-amine]

Ki [nM] | SMILES
100 to 5000 | CN(C)C(=O)c1ccc(-c2cnc(N)c(-c3nnc(-c4cccc([N+](=O)[O-])c4)o3)n2)cc1 [IA-286, 4-(5-amino-6-(5-(3-nitrophenyl)-1,3,4-oxadiazol-2-yl)pyrazin-2-yl)-N,N-dimethylbenzamide]
100 to 5000 | CN(C)C(=O)c1ccc(-c2cnc(N)c(-c3nnc(NC(=O)c4ccccc4)o3)n2)cc1 [IA-287, 4-[5-amino-6-(5-benzamido-1,3,4-oxadiazol-2-yl)pyrazin-2-yl]-N,N-dimethyl-benzamide]
≤ 10 | CNCc1ccc(-c2nnc(-c3nc(-c4ccc(S(C)(=O)=O)cc4)cnc3N)o2)cc1 [IA-288, 3-[5-[4-(methylaminomethyl)phenyl]-1,3,4-oxadiazol-2-yl]-5-(4-methylsulfonylphenyl)pyrazin-2-amine]
≤ 10 | CNCc1ccc(-c2nnc(-c3nc(-c4ccc(S(=O)(=O)CCN(C)C)cc4)cnc3N)o2)cc1 [IA-289, 5-[4-(2-dimethylaminoethylsulfonyl)phenyl]-3-[5-[4-(methylaminomethyl)phenyl]-1,3,4-oxadiazol-2-yl]pyrazin-2-amine]
≤ 10 | CNCc1ccc(-c2nnc(-c3nc(-c4ccc(S(=O)(=O)C(C)C)cc4F)cnc3N)o2)cc1 [IA-292, 5-(2-fluoro-4-isopropylsulfonyl-phenyl)-3-[5-[4-(methylaminomethyl)phenyl]-1,3,4-oxadiazol-2-yl]pyrazin-2-amine]
≤ 10 | CNCc1ccc(-c2nnc(-c3nc(-c4ccc(S(=O)(=O)C(C)C)cc4C)cnc3N)o2)cc1 [IA-293, 5-(4-isopropylsulfonyl-2-methyl-phenyl)-3-[5-[4-(methylaminomethyl)phenyl]-1,3,4-oxadiazol-2-yl]pyrazin-2-amine]
≤ 10 | CNCc1ccc(-c2nnc(-c3nc(-c4ccc(S(=O)(=O)C(C)C)c(C#N)c4)cnc3N)o2)cc1 [IA-295, 5-[5-amino-6-[5-[4-(methylaminomethyl)phenyl]-1,3,4-oxadiazol-2-yl]pyrazin-2-yl]-2-isopropylsulfonyl-benzonitrile]
≤ 10 | CNCc1ccc(-c2nnc(-c3nc(-c4ccc(S(=O)(=O)N(C)C)cc4)cnc3N)o2)cc1 [IA-296, 4-[5-amino-6-[5-[4-(methylaminomethyl)phenyl]-1,3,4-oxadiazol-2-yl]pyrazin-2-yl]-N,N-dimethyl-benzenesulfonamide]
≤ 10 | CNCc1ccc(-c2nnc(-c3nc(-c4ccc(S(=O)(=O)N5CCC5)cc4)cnc3N)o2)cc1 [IA-297, 5-[4-(azetidin-1-ylsulfonyl)phenyl]-3-[5-[4-(methylaminomethyl)phenyl]-1,3,4-oxadiazol-2-yl]pyrazin-2-amine]
≤ 10 | CNCc1ccc(-c2nnc(-c3nc(-c4ccc(S(=O)(=O)C(C)C)cn4)cnc3N)o2)cc1 [IA-300, 5-(5-isopropylsulfonyl-2-pyridyl)-3-[5-[4-(methylaminomethyl)phenyl]-1,3,4-oxadiazol-2-yl]pyrazin-2-amine]
≤ 10 | CNCc1ccc(-c2nnc(-c3nc(-c4ccc(S(=O)(=O)CCCO)cc4)cnc3N)o2)cc1 [IA-301, 3-[4-[5-amino-6-[5-[4-(methylaminomethyl)phenyl]-1,3,4-oxadiazol-2-yl]pyrazin-2-yl]phenyl]sulfonylpropan-1-ol]
≤ 10 | CNCc1ccc(-c2nnc(-c3nc(-c4ccc(S(=O)(=O)C5CCOC5)cc4)cnc3N)o2)cc1 (stereo not drawn) [IA-302, 3-[5-[4-(methylaminomethyl)phenyl]-1,3,4-oxadiazol-2-yl]-5-(4-tetrahydrofuran-3-ylsulfonylphenyl)pyrazin-2-amine]
≤ 10 | CNCc1ccc(-c2nnc(-c3nc(-c4ccc(S(=O)(=O)C(C)C)nc4)cnc3N)o2)cc1 [IA-303, 5-(6-isopropylsulfonyl-3-pyridyl)-3-[5-[4-(methylaminomethyl)phenyl]-1,3,4-oxadiazol-2-yl]pyrazin-2-amine]
≤ 10 | CNCc1ccc(-c2nnc(-c3nc(-c4ccc(S(=O)(=O)NCCO)cc4)cnc3N)o2)cc1 [IA-304, 4-[5-amino-6-[5-[4-(methylaminomethyl)phenyl]-1,3,4-oxadiazol-2-yl]pyrazin-2-yl]-N-(2-hydroxyethyl)benzenesulfonamide]
≤ 10 | CNCc1ccc(-c2nnc(-c3nc(-c4ccc(S(=O)(=O)C(C)C)c(Cl)c4)cnc3N)o2)cc1 [IA-305, 5-(3-chloro-4-isopropylsulfonyl-phenyl)-3-[5-[4-(methylaminomethyl)phenyl]-1,3,4-oxadiazol-2-yl]pyrazin-2-amine]
≤ 10 | CNCc1ccc(-c2nnc(-c3nc(-c4ccc(S(=O)(=O)C(C)C)cc4)cnc3N)o2)c(Cl)c1 [IA-306, 3-[5-[2-chloro-4-(methylaminomethyl)phenyl]-1,3,4-oxadiazol-2-yl]-5-(4-isopropylsulfonylphenyl)pyrazin-2-amine]
≤ 10 | CCS(=O)(=O)c1ccc(-c2cnc(N)c(-c3nnc(-c4ccc(CNC)cc4)o3)n2)cc1 [IA-307, 5-(4-(ethylsulfonyl)phenyl)-3-(5-(4-((methylamino)methyl)phenyl)-1,3,4-oxadiazol-2-yl)pyrazin-2-amine]
≤ 10 | CNCc1ccc(-c2nnc(-c3nc(-c4ccc(S(=O)(=O)C5COC5)cc4)cnc3N)o2)cc1 [IA-308, 3-[5-[4-(methylaminomethyl)phenyl]-1,3,4-oxadiazol-2-yl]-5-[4-(oxetan-3-ylsulfonyl)phenyl]pyrazin-2-amine]
